{
  "source": "patent US20200405697A1",
  "about": "“Antitumor Agent” (Taiho Pharmaceutical Co., Ltd, priority 2017, published 2020)",
  "key": {"GB-1 cells": {"test_system": "GB-1 cells", "assay": "Cell proliferation inhibitory effect on human cancer cell lines: GB-1", "format": "cell-based", "conditions": "GB-1, Glioblastoma, DMEM + 10% FBS, 3000 cell/well", "description": "Human derived breast cancer cell line HCC 1806 cells (American Type Culture Collection, ATCC) were daily passaged at a cell density not exceeding 80% in ATCC recommended Roswell Park Memorial Institute medium (RPMI-1640) containing 10% fetal bovine serum (FBS). In order to start the test of cell proliferation inhibitory activity, HCC 1806 cells were suspended in the above medium, after seeing at 180 μL in each well of a 96-well flat bottom plate so that the number of cells per well was 2,000, the cells were cultured at 37° C. for 1 day in an incubator containing 5% carbon dioxide gas.\nOn the next day, the Example compound was dissolved in DMSO, and 20 μL of a drug additive solution diluted serially with distilled water to 10 times of the final concentration was added to each well of the culture plate of the cells, and the cells were cultured at 37° C. for 72 hours in an incubator containing 5% carbon dioxide gas. After culturing for 72 hours, 20 μL of glutaraldehyde was added to each well and allowed to stand for 30 minutes, then the plate was washed 10 times with water and was dried. 100 μL of a stain solution (0.05% crystal violet in a 20% methanol solution) was added to each well and allowed to stand for 30 minutes, then the plate was washed 10 times with water and was dried. 100 μL of an extract solution (0.1 N NaH2PO4: 100% ethanol=1:1) was added to each well and mixed, and the mixture was measured at a wavelength of 540 nm using a plate reader (MTP-450 manufactured by Corona Electric Co., Ltd.).\nThe growth inhibition rate was calculated from the following formula, and the concentration (IC50 (μM)) of a compound inhibiting 50% was determined.\nAccording to the method of Test Example 2, the cell proliferation inhibitory effect on various cancer cell lines as described in Table 24 was evaluated. […]"}, "MV-4-11": {"test_system": "MV-4-11", "assay": "Antitumor effect in human-derived blood cancer cell line (MV-4-11) subcutaneous transplantation model (in vivo)", "parameters": "species or system nude mouse (BALB/cA Jcl-nu/nu)", "conditions": "oral, 100 mg/kg/day once per day for 14 days; RTV vs control group, Student-t test, p<0.05", "description": "A human-derived blood cancer cell line MV-4-11 was transplanted subcutaneously into a nude mouse (BALB/cA Jcl-nu/nu, CLEA Japan, Inc.), and at the time when the tumor volume of the nude mouse on which the engrafted tumor reached 100 to 300 mm^3, four mice were assigned to each group by random stratification so that the average of the tumor volumes of each group was uniform (day 0), and the Example compound was orally administered daily at 100 mg/kg/day once per day for 14 days. Example Compound dosing solutions were prepared using 0.5% HPMC.\nAn electric balance for animals was used in body weight measurement. Rate of change in body weight on day n (BWCn) from body weight on day n (BWn) was calculated according to the following equation.\nRate of change in body weight BWCn (%)=(BWn−BW0)/BW0×100\nTumor volume (TV) was calculated according to the following equation by sandwiching and measuring the major axis and the minor axis with a digital caliper.\nTumor volume (mm^3)=Major axis (mm)×Minor axis (mm)×Minor axis (mm)/2\nIn order to compare the chronological transition of proliferation of tumor for the administration of each compound, relative tumor volume (RTV) setting the tumor volume at the time of grouping as 1 as the tumor proliferation rate was calculated according to the following formula, and the transition of the average value of RTV of each individual are shown in FIGS. 1 to 4.\nRTV=(tumor volume at the day of tumor volume measurement)/(tumor volume at the time of the grouping)"}, "[1]": {"test_system": "MV-4-11 (Human blood cancer cell line)", "assay": "Effect of combination of sulfonamide compound and other antitumor agent (CellTiter-Glo, combination index): MV-4-11"}, "[2]": {"test_system": "CFPAC-1 (Human pancreatic cancer cell line)", "assay": "Effect of combination of sulfonamide compound and other antitumor agent (CellTiter-Glo, combination index): CFPAC-1;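 further: cells exposed to both agents together for 3 days, viability read by luminescence, normalized to vehicle-treated control wells, mean of triplicate wells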"}, "[3]": {"conditions": "Example Compound 1 121 nM + Cytarabine 116 nM, molar ratio 1:0.9614"}, "[4]": {"conditions": "Example Compound 1 121 nM + Guadecitabine 11.9 nM, molar ratio 1:0.09807"}, "[5]": {"conditions": "Example Compound 1 182 nM + Cytarabine 175 nM, molar ratio 1:0.9614"}, "[6]": {"conditions": "Example Compound 1 182 nM + Decitabine 50.2 nM, molar ratio 1:0.2758"}, "[7]": {"conditions": "Example Compound 1 182 nM + Fludarabine nucleoside 4110 nM, molar ratio 1:22.56"}, "[8]": {"conditions": "Example Compound 1 182 nM + Guadecitabine 17.8 nM, molar ratio 1:0.09807"}, "[9]": {"conditions": "Example Compound 1 273 nM + Decitabine 75.3 nM, molar ratio 1:0.2758"}, "[10]": {"conditions": "Example Compound 1 273 nM + Fludarabine nucleoside 6160 nM, molar ratio 1:22.56"}, "[11]": {"conditions": "Example Compound 1 273 nM + Guadecitabine 26.8 nM, molar ratio 1:0.09807"}, "[12]": {"conditions": "Example Compound 1 409 nM + Cytarabine 393 nM, molar ratio 1:0.9614"}, "[13]": {"conditions": "Example Compound 1 409 nM + Decitabine 113 nM, molar ratio 1:0.2758"}, "[14]": {"conditions": "Example Compound 1 409 nM + Guadecitabine 40.1 nM, molar ratio 1:0.09807"}, "[15]": {"conditions": "Example Compound 1 613 nM + Decitabine 169 nM, molar ratio 1:0.2758"}, "[16]": {"conditions": "Example Compound 1 613 nM + Decitabine 589 nM, molar ratio 1:0.2758"}, "[17]": {"conditions": "Example Compound 1 613 nM + Guadecitabine 60.1 nM, molar ratio 1:0.09807"}, "[18]": {"conditions": "Example Compound 1 920 nM + Decitabine 254 nM, molar ratio 1:0.2758"}, "[19]": {"conditions": "Example Compound 1 920 nM + Guadecitabine […], molar ratio 1:0.09807"}, "[20]": {"conditions": "Example Compound 1 225 nM + Prexasertib 1.89 nM, molar ratio 1:0.008406"}, "[21]": {"conditions": "Example Compound 1 338 nM + AZD6738 925 nM, molar ratio 1:2.738"}, "[22]": {"conditions": "Example Compound 1 338 nM + Prexasertib 2.84 nM, molar ratio 1:0.008406"}, "[23]": {"conditions": "Example Compound 1 338 nM + SCH900776 253 nM, molar ratio 1:0.7487"}, "[24]": {"conditions": "Example Compound 1 507 nM + AZD6738 1390 nM, molar ratio 1:2.738"}, "[25]": {"conditions": "Example Compound 1 507 nM + Prexasertib 4.26 nM, molar ratio 1:0.008406"}, "[26]": {"conditions": "Example Compound 1 507 nM + SCH900776 380 nM, molar ratio 1:0.7487"}, "[27]": {"conditions": "Example Compound 1 760 nM + AZD6738 2080 nM, molar ratio 1:2.738"}, "[28]": {"conditions": "Example Compound 1 760 nM + Gemcitabine 5.28 nM, molar ratio 1:0.006950"}, "[29]": {"conditions": "Example Compound 1 760 nM + SCH900776 569 nM, molar ratio 1:0.7487"}},
  "data": [
    {"smiles": "Cc1ccc(F)c([C@@H](C)[C@H](NS(=O)(=O)c2ccc(Br)cc2C(N)=O)c2n[nH]c(=O)o2)c1C", "note": "[Example 1, 5-bromo-2-(N-((1 S,2R)-2-(6-fluoro-2,3-dimethylphenyl)-1-(5-oxo-4,5-dihydro-1,3,4-oxadiazol-2-yl)propyl)sulfamoyl)benzamide]", "values": [
      {"measurement": "IC50", "setting": "GB-1 cells", "result": 1560, "unit": "nM"},
      {"measurement": "antitumor effect (relative tumor volume, RTV)", "setting": "MV-4-11", "result": "antitumor effect"},
      {"measurement": "CI value", "setting": "[1]; [3]", "result": 0.683},
      {"measurement": "Fa value", "setting": "[1]; [3]", "result": 0.1611},
      {"measurement": "CI value", "setting": "[1]; [4]", "result": 0.706},
      {"measurement": "Fa value", "setting": "[1]; [4]", "result": 0.2186},
      {"measurement": "CI value", "setting": "[1]; [5]", "result": 0.603},
      {"measurement": "Fa value", "setting": "[1]; [5]", "result": 0.4508},
      {"measurement": "CI value", "setting": "[1]; [6]", "result": 0.643},
      {"measurement": "Fa value", "setting": "[1]; [6]", "result": 0.3873},
      {"measurement": "CI value", "setting": "[1]; [7]", "result": 0.783},
      {"measurement": "Fa value", "setting": "[1]; [7]", "result": 0.1868},
      {"measurement": "CI value", "setting": "[1]; [8]", "result": 0.741},
      {"measurement": "Fa value", "setting": "[1]; [8]", "result": 0.3225},
      {"measurement": "CI value", "setting": "[1]; [9]", "result": 0.680},
      {"measurement": "Fa value", "setting": "[1]; [9]", "result": 0.5342},
      {"measurement": "CI value", "setting": "[1]; [10]", "result": 0.592},
      {"measurement": "Fa value", "setting": "[1]; [10]", "result": 0.8795},
      {"measurement": "CI value", "setting": "[1]; [11]", "result": 0.705},
      {"measurement": "Fa value", "setting": "[1]; [11]", "result": 0.5192},
      {"measurement": "CI value", "setting": "[1]; [12]", "result": 0.538},
      {"measurement": "Fa value", "setting": "[1]; [12]", "result": 0.9443},
      {"measurement": "CI value", "setting": "[1]; [13]", "result": 0.667},
      {"measurement": "Fa value", "setting": "[1]; [13]", "result": 0.7570},
      {"measurement": "CI value", "setting": "[1]; [14]", "result": 0.658},
      {"measurement": "Fa value", "setting": "[1]; [14]", "result": 0.7788},
      {"measurement": "CI value", "setting": "[1]; [15]", "result": 0.672},
      {"measurement": "Fa value", "setting": "[1]; [15]", "result": 0.9292},
      {"measurement": "CI value", "setting": "[1]; [16]", "result": 0.419},
      {"measurement": "Fa value", "setting": "[1]; [16]", "result": 0.9960},
      {"measurement": "CI value", "setting": "[1]; [17]", "result": 0.671},
      {"measurement": "Fa value", "setting": "[1]; [17]", "result": 0.9347},
      {"measurement": "CI value", "setting": "[1]; [18]", "result": 0.666},
      {"measurement": "Fa value", "setting": "[1]; [18]", "result": 0.9900},
      {"measurement": "CI value", "setting": "[1]; [19]", "result": 0.639},
      {"measurement": "Fa value", "setting": "[1]; [19]", "result": 0.9921},
      {"measurement": "CI value", "setting": "[2]; [20]", "result": 0.825},
      {"measurement": "Fa value", "setting": "[2]; [20]", "result": 0.2319},
      {"measurement": "CI value", "setting": "[2]; [21]", "result": 0.484},
      {"measurement": "Fa value", "setting": "[2]; [21]", "result": 0.4791},
      {"measurement": "CI value", "setting": "[2]; [22]", "result": 0.580},
      {"measurement": "Fa value", "setting": "[2]; [22]", "result": 0.6056},
      {"measurement": "CI value", "setting": "[2]; [23]", "result": 0.496},
      {"measurement": "Fa value", "setting": "[2]; [23]", "result": 0.4162},
      {"measurement": "CI value", "setting": "[2]; [24]", "result": 0.356},
      {"measurement": "Fa value", "setting": "[2]; [24]", "result": 0.7266},
      {"measurement": "CI value", "setting": "[2]; [25]", "result": 0.633},
      {"measurement": "Fa value", "setting": "[2]; [25]", "result": 0.7542},
      {"measurement": "CI value", "setting": "[2]; [26]", "result": 0.369},
      {"measurement": "Fa value", "setting": "[2]; [26]", "result": 0.6944},
      {"measurement": "CI value", "setting": "[2]; [27]", "result": 0.427},
      {"measurement": "Fa value", "setting": "[2]; [27]", "result": 0.7884},
      {"measurement": "CI value", "setting": "[2]; [28]", "result": 0.790},
      {"measurement": "Fa value", "setting": "[2]; [28]", "result": 0.6416},
      {"measurement": "CI value", "setting": "[2]; [29]", "result": 0.472},
      {"measurement": "Fa value", "setting": "[2]; [29]", "result": 0.7479}
    ]}
  ]
}
